Data on six compounds can be found in ChEMBL document CHEMBL3600338, “NMR-based conformational analysis of 2',6-disubstituted uridines and antiviral evaluation of new phosphoramidate prodrugs” (Bioorg Med Chem, 2015).

The source made the active and inactive calls. The rule behind the calls is not given here.

The first assay relates to Enterovirus A71. The experiment in a line: Antiviral activity against Enterovirus 71 infected in human HeLa cells assessed as reduction of viral replication. The format is functional, organism-based.
Conditions: not given
Turning to `CC(C)OC(=O)[C@H](C)NP(=O)(OC[C@H]1OC(n2c(C#N)cc(=O)[nH]c2=O)[C@H](O)[C@@H]1O)Oc1ccccc1` (some centres not stated), the result was inactive.

For the compound `CC(C)OC(=O)[C@H](C)NP(=O)(OC[C@H]1OC(n2c(N=[N+]=[N-])cc(=O)[nH]c2=O)[C@H](O)[C@@H]1O)Oc1ccccc1` (some centres not stated), the outcome was inactive.

With `CC(C)OC(=O)[C@H](C)NP(=O)(OC[C@H]1OC(n2c(I)cc(=O)[nH]c2=O)[C@H](O)[C@@H]1O)Oc1ccccc1` (some centres not stated), the outcome was inactive.

Turning to `Cc1cc(=O)[nH]c(=O)n1C1O[C@H](COP(=O)(N[C@@H](C)C(=O)OC(C)C)Oc2ccccc2)[C@@H](O)[C@H]1O` (some centres not stated), the result was inactive.

Take `CC(C)OC(=O)[C@H](C)NP(=O)(OC[C@H]1OC(n2c(C#N)cc(=O)[nH]c2=O)[C@](C)(O)[C@@H]1O)Oc1ccccc1` (some centres not stated): the outcome was inactive.

For the compound `Cc1cc(=O)[nH]c(=O)n1C1O[C@H](COP(=O)(N[C@@H](C)C(=O)OC(C)C)Oc2ccccc2)[C@@H](O)[C@@]1(C)O` (some centres not stated), the result was inactive.

The next assay relates to Chikungunya virus. Put plainly: Antiviral activity against Chikungunya virus assessed as reduction of viral replication. The format is functional.
Conditions: not given
As for `CC(C)OC(=O)[C@H](C)NP(=O)(OC[C@H]1OC(n2c(C#N)cc(=O)[nH]c2=O)[C@H](O)[C@@H]1O)Oc1ccccc1` (some centres not stated), the outcome was inactive.

Consider `CC(C)OC(=O)[C@H](C)NP(=O)(OC[C@H]1OC(n2c(N=[N+]=[N-])cc(=O)[nH]c2=O)[C@H](O)[C@@H]1O)Oc1ccccc1` (some centres not stated), for which the result was inactive.

For `CC(C)OC(=O)[C@H](C)NP(=O)(OC[C@H]1OC(n2c(I)cc(=O)[nH]c2=O)[C@H](O)[C@@H]1O)Oc1ccccc1` (some centres not stated), the outcome was inactive.

Consider `Cc1cc(=O)[nH]c(=O)n1C1O[C@H](COP(=O)(N[C@@H](C)C(=O)OC(C)C)Oc2ccccc2)[C@@H](O)[C@H]1O` (some centres not stated), for which the result was inactive.

Regarding `CC(C)OC(=O)[C@H](C)NP(=O)(OC[C@H]1OC(n2c(C#N)cc(=O)[nH]c2=O)[C@](C)(O)[C@@H]1O)Oc1ccccc1` (some centres not stated), the outcome was inactive.

On to `Cc1cc(=O)[nH]c(=O)n1C1O[C@H](COP(=O)(N[C@@H](C)C(=O)OC(C)C)Oc2ccccc2)[C@@H](O)[C@@]1(C)O` (some centres not stated), for which the outcome was inactive.

The subject of a further assay is Poliovirus 1. Put plainly: Antiviral activity against Poliovirus 1 Sabin infected in African green monkey BGM cells assessed as reduction of viral replication. The format is functional, organism-based.
Conditions: not given
Take `CC(C)OC(=O)[C@H](C)NP(=O)(OC[C@H]1OC(n2c(C#N)cc(=O)[nH]c2=O)[C@H](O)[C@@H]1O)Oc1ccccc1` (some centres not stated): the outcome was inactive.

In the case of `CC(C)OC(=O)[C@H](C)NP(=O)(OC[C@H]1OC(n2c(N=[N+]=[N-])cc(=O)[nH]c2=O)[C@H](O)[C@@H]1O)Oc1ccccc1` (some centres not stated), the result was inactive.

For the compound `CC(C)OC(=O)[C@H](C)NP(=O)(OC[C@H]1OC(n2c(I)cc(=O)[nH]c2=O)[C@H](O)[C@@H]1O)Oc1ccccc1` (some centres not stated), the outcome was inactive.

On to `Cc1cc(=O)[nH]c(=O)n1C1O[C@H](COP(=O)(N[C@@H](C)C(=O)OC(C)C)Oc2ccccc2)[C@@H](O)[C@H]1O` (some centres not stated), for which the outcome was inactive.

For the compound `CC(C)OC(=O)[C@H](C)NP(=O)(OC[C@H]1OC(n2c(C#N)cc(=O)[nH]c2=O)[C@](C)(O)[C@@H]1O)Oc1ccccc1` (some centres not stated), the result was inactive.

Regarding `Cc1cc(=O)[nH]c(=O)n1C1O[C@H](COP(=O)(N[C@@H](C)C(=O)OC(C)C)Oc2ccccc2)[C@@H](O)[C@@]1(C)O` (some centres not stated), the result was inactive.

In the next assay the test system is Vero. Put plainly: Antiviral activity against Coxsackievirus B3 Nancy infected in African green monkey Vero cells assessed as reduction of viral replication. Particulars: Coxsackievirus B3 (strain Nancy). The format is functional, cell-based.
Take `CC(C)OC(=O)[C@H](C)NP(=O)(OC[C@H]1OC(n2c(C#N)cc(=O)[nH]c2=O)[C@H](O)[C@@H]1O)Oc1ccccc1` (some centres not stated): the result was inactive.

For the compound `CC(C)OC(=O)[C@H](C)NP(=O)(OC[C@H]1OC(n2c(N=[N+]=[N-])cc(=O)[nH]c2=O)[C@H](O)[C@@H]1O)Oc1ccccc1` (some centres not stated), the outcome was inactive.

In the case of `CC(C)OC(=O)[C@H](C)NP(=O)(OC[C@H]1OC(n2c(I)cc(=O)[nH]c2=O)[C@H](O)[C@@H]1O)Oc1ccccc1` (some centres not stated), the outcome was inactive.

For `Cc1cc(=O)[nH]c(=O)n1C1O[C@H](COP(=O)(N[C@@H](C)C(=O)OC(C)C)Oc2ccccc2)[C@@H](O)[C@H]1O` (some centres not stated), the outcome was inactive.

`CC(C)OC(=O)[C@H](C)NP(=O)(OC[C@H]1OC(n2c(C#N)cc(=O)[nH]c2=O)[C@](C)(O)[C@@H]1O)Oc1ccccc1` (some centres not stated): the result was inactive.

As for `Cc1cc(=O)[nH]c(=O)n1C1O[C@H](COP(=O)(N[C@@H](C)C(=O)OC(C)C)Oc2ccccc2)[C@@H](O)[C@@]1(C)O` (some centres not stated), the outcome was inactive.

For another assay, the system named is Hepatitis C virus. Put plainly: Antiviral activity against Hepatitis C virus genotype 1b Con1 in HuH 5-2 replicon system assessed as reduction of viral replication. Particulars: Hepacivirus hominis. The format is functional. In general terms: Replicon systems follow genome replication, usually without infectious particles.
On to `CC(C)OC(=O)[C@H](C)NP(=O)(OC[C@H]1OC(n2c(C#N)cc(=O)[nH]c2=O)[C@H](O)[C@@H]1O)Oc1ccccc1` (some centres not stated), for which the result was inactive.

As for `CC(C)OC(=O)[C@H](C)NP(=O)(OC[C@H]1OC(n2c(N=[N+]=[N-])cc(=O)[nH]c2=O)[C@H](O)[C@@H]1O)Oc1ccccc1` (some centres not stated), the outcome was inactive.

Regarding `CC(C)OC(=O)[C@H](C)NP(=O)(OC[C@H]1OC(n2c(I)cc(=O)[nH]c2=O)[C@H](O)[C@@H]1O)Oc1ccccc1` (some centres not stated), the result was inactive.

As for `Cc1cc(=O)[nH]c(=O)n1C1O[C@H](COP(=O)(N[C@@H](C)C(=O)OC(C)C)Oc2ccccc2)[C@@H](O)[C@H]1O` (some centres not stated), the outcome was inactive.

Take `CC(C)OC(=O)[C@H](C)NP(=O)(OC[C@H]1OC(n2c(C#N)cc(=O)[nH]c2=O)[C@](C)(O)[C@@H]1O)Oc1ccccc1` (some centres not stated): the outcome was inactive.

In the case of `Cc1cc(=O)[nH]c(=O)n1C1O[C@H](COP(=O)(N[C@@H](C)C(=O)OC(C)C)Oc2ccccc2)[C@@H](O)[C@@]1(C)O` (some centres not stated), the result was inactive.

Another assay has as its system rhinovirus B14. The experiment in a line: Antiviral activity against Rhinovirus 14 infected in human HeLa cells assessed as reduction of viral replication.
Conditions: not given
It counts as functional, organism-based.
Regarding `CC(C)OC(=O)[C@H](C)NP(=O)(OC[C@H]1OC(n2c(C#N)cc(=O)[nH]c2=O)[C@H](O)[C@@H]1O)Oc1ccccc1` (some centres not stated), the outcome was inactive.

Take `CC(C)OC(=O)[C@H](C)NP(=O)(OC[C@H]1OC(n2c(N=[N+]=[N-])cc(=O)[nH]c2=O)[C@H](O)[C@@H]1O)Oc1ccccc1` (some centres not stated): the result was inactive.

For `CC(C)OC(=O)[C@H](C)NP(=O)(OC[C@H]1OC(n2c(I)cc(=O)[nH]c2=O)[C@H](O)[C@@H]1O)Oc1ccccc1` (some centres not stated), the result was inactive.

For `Cc1cc(=O)[nH]c(=O)n1C1O[C@H](COP(=O)(N[C@@H](C)C(=O)OC(C)C)Oc2ccccc2)[C@@H](O)[C@H]1O` (some centres not stated), the outcome was inactive.

For `CC(C)OC(=O)[C@H](C)NP(=O)(OC[C@H]1OC(n2c(C#N)cc(=O)[nH]c2=O)[C@](C)(O)[C@@H]1O)Oc1ccccc1` (some centres not stated), the result was inactive.

In the case of `Cc1cc(=O)[nH]c(=O)n1C1O[C@H](COP(=O)(N[C@@H](C)C(=O)OC(C)C)Oc2ccccc2)[C@@H](O)[C@@]1(C)O` (some centres not stated), the result was inactive.

Another assay has as its system Vero. The experiment in a line: Antiviral activity against Coxsackievirus B4 E2 infected in African green monkey Vero cells assessed as reduction of viral replication. It counts as functional, cell-based. The settings on record: Coxsackievirus B4 (strain E2).
For the compound `CC(C)OC(=O)[C@H](C)NP(=O)(OC[C@H]1OC(n2c(C#N)cc(=O)[nH]c2=O)[C@H](O)[C@@H]1O)Oc1ccccc1` (some centres not stated), the outcome was inactive.

With `CC(C)OC(=O)[C@H](C)NP(=O)(OC[C@H]1OC(n2c(N=[N+]=[N-])cc(=O)[nH]c2=O)[C@H](O)[C@@H]1O)Oc1ccccc1` (some centres not stated), the result was inactive.

For `CC(C)OC(=O)[C@H](C)NP(=O)(OC[C@H]1OC(n2c(I)cc(=O)[nH]c2=O)[C@H](O)[C@@H]1O)Oc1ccccc1` (some centres not stated), the outcome was inactive.

Regarding `Cc1cc(=O)[nH]c(=O)n1C1O[C@H](COP(=O)(N[C@@H](C)C(=O)OC(C)C)Oc2ccccc2)[C@@H](O)[C@H]1O` (some centres not stated), the outcome was inactive.

As for `CC(C)OC(=O)[C@H](C)NP(=O)(OC[C@H]1OC(n2c(C#N)cc(=O)[nH]c2=O)[C@](C)(O)[C@@H]1O)Oc1ccccc1` (some centres not stated), the result was inactive.

For the compound `Cc1cc(=O)[nH]c(=O)n1C1O[C@H](COP(=O)(N[C@@H](C)C(=O)OC(C)C)Oc2ccccc2)[C@@H](O)[C@@]1(C)O` (some centres not stated), the result was inactive.
